Assays:
[1] = target: T1, SOS-mediated nucleotide exchange on Ras (Homo sapiens, UniProt Q07889); test: SOS-mediated nucleotide exchange on Ras (BODIPY-GDP fluorescence); assay type: biochemical; details: Ras loaded with BODIPY-GDP, GTP and SOS added; EC50 from derived exchange rates
T1 sequence (Q07889 1-1333): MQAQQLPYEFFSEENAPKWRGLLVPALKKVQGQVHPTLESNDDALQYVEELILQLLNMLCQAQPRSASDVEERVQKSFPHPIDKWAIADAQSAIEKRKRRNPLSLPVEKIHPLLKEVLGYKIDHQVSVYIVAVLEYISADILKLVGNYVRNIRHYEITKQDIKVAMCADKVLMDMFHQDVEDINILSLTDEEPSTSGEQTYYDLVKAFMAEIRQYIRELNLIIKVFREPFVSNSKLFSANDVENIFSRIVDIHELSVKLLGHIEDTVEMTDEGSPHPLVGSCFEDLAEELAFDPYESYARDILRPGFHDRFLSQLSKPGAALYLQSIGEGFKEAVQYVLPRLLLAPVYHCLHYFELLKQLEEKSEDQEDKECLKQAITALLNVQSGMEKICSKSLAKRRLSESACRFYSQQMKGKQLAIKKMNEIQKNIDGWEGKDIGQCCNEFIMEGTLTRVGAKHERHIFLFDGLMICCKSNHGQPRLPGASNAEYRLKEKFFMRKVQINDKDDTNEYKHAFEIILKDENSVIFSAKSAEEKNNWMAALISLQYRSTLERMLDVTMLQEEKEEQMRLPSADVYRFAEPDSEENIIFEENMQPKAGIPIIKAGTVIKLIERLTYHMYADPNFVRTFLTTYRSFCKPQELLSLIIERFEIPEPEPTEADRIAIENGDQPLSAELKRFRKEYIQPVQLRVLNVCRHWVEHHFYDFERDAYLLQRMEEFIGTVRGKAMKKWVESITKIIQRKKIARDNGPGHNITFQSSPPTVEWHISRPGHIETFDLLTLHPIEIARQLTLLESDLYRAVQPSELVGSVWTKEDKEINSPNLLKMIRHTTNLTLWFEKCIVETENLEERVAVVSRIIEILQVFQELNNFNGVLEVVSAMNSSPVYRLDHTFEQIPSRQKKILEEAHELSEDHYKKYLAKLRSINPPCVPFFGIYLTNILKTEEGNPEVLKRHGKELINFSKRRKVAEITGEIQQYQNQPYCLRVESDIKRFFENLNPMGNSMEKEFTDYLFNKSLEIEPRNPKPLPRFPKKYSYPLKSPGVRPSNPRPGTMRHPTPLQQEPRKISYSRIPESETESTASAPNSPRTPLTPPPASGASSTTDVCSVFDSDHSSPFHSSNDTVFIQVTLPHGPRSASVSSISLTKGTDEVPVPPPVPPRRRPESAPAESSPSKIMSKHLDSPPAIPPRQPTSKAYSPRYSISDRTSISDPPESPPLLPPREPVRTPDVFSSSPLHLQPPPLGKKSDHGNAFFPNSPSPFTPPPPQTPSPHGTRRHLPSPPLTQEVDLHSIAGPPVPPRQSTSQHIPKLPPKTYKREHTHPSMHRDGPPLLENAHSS
Method: A. SOS-Mediated Nucleotide Exchange on Ras
Compounds of the present invention were tested for their ability to modify the rate at which Ras exchanges a labeled nucleotide guanosine diphosphate (GDP) analog for guanosine triphosphate (GTP). Briefly, test compounds, then GTP and the Ras GEF SOS (Son of Sevenless) are added to a buffered solution containing Ras protein loaded with BODIPY-GDP. Changes in fluorescence indicating exchange of the labeled GDP for GTP are monitored over time. Raw fluorescence data was fit to a single exponential decay function and derived rates were plotted as mean values. EC50 values were calculated by plotting mean derived rates as a function of compound concentration and fit using a four-parameter dose-response curve. Full assay details are disclosed in: Burns, M. C.; Sun, Q.; Daniels, R. N.; Camper, D. V.; Kennedy, J. P.; Phan, J.; Olejniczak, E. O.; Lee, T.; Waterson, A. G.; Rossanese, O. W.; Fesik, S. W. “Approach for targeting Ras with small molecules that activate SOS-mediated nucleotide exchange” Proc. Natl. Acad. Sci. 2014; 11(9): 3401-3406. PMCID: PMC3948241.

Son of Sevenless (SOS) = target: T2, Son of Sevenless (SOS) (Homo sapiens, UniProt Q07889); test: Binding to SOS, fluorescence polarization anisotropy (FPA) displacement of FITC-conjugated probe; details: binding affinity calculated from IC50 of FITC-probe displacement, read-out: Binding affinities (binding affinity to SOS)
T2 sequence (Q07889 564-1049 limits assumed): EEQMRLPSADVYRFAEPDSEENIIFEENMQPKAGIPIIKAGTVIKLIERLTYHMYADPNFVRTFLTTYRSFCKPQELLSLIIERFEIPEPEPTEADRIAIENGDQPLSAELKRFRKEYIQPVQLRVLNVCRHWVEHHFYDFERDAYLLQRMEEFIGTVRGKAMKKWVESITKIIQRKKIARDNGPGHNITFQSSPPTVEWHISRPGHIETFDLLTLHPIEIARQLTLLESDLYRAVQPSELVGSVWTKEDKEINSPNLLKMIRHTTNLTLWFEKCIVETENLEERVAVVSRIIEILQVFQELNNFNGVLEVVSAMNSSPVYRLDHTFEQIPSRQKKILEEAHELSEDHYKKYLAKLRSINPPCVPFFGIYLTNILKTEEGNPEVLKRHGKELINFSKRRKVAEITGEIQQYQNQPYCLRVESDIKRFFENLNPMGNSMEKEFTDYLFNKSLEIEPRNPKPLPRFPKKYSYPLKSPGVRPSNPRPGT
Method: Compounds of the present invention were tested for their ability to the Ras guanine exchange factor (GEF) Son of Sevenless (SOS). Binding to SOS was measured using a Fluorescence polarization anisotropy (FPA) assay that assesses the ability of a test compound to displace a fluorescent FITC-conjugated compound. Briefly, the labeled probe compound is incubated with SOS in buffer. Changes in anisotropy indicative of displacement of the labeled probe for a test compound are assessed over a dose range of test compound. Data was analyzed by plotting fluorescence anisotropy values as a function of compound concentration. IC50 values were determined using a four-parameter dose-response (variable slope) and binding affinities were calculated from this IC50 value. This assay is performed in a method analogous to the assay disclosed in: Burns, M. C.; Sun, Q.; Daniels, R. N.; Camper, D. V.; Kennedy, J. P.; Phan, J.; Olejniczak, E. O.; Lee, T.; Waterson, A. G.; Rossanese, O. W.; Fesik, S. W. “Approach for targeting Ras with small molecules that activate SOS-mediated nucleotide exchange” Proc. Natl. Acad. Sci. 2014; 11(9): 3401-3406. PMCID: PMC3948241.

CCC(Nc1nc(Nc2ccc(F)c(Cl)c2)nc2ccccc12)C(C)C (centres unmarked) [Example 2, N^2-(3-chloro-4-fluorophenyl)-N^4-(2-methylpentan-3-yl)quinazoline-2,4-diamine]
EC50 [1]: 1 to 5 µM
Ki (Son of Sevenless (SOS)): > 5 µM

C[C@@H](Nc1nc(NCC2CCCC2)nc2ccccc12)C1CC1 [Example 3, (R)—N^2-(cyclopentylmethyl)-N^4-(1-cyclopropylethyl)quinazoline-2,4-diamine]
EC50 [1]: 1 to 5 µM
Ki (Son of Sevenless (SOS)): > 5 µM

C[C@@H](Nc1nc(NCC2CCCCC2)nc2ccccc12)C1CC1 [Example 4, (R)—N^2-(cyclohexylmethyl)-N^4-(1-cyclopropylethyl)quinazoline-2,4-diamine]
EC50 [1]: 1 to 5 µM
Ki (Son of Sevenless (SOS)): > 5 µM

Clc1cc(Cl)cc(Nc2nc(NCc3cccs3)c3ccccc3n2)c1 [Example 9, N^2-(3,5-dichlorophenyl)-N^4-(thiophen-2-ylmethyl)quinazoline-2,4-diamine]
EC50 [1]: < 1 µM
Ki (Son of Sevenless (SOS)): > 5 µM

Fc1ccc(CNc2nc(NCc3ccco3)c3ccccc3n2)cc1 [Example 14, N^2-(4-fluorobenzyl)-N^4-(furan-2-ylmethyl)quinazoline-2,4-diamine]
EC50 [1]: 1 to 5 µM
Ki (Son of Sevenless (SOS)): > 5 µM

C[C@@H](Nc1nc(NCc2ccc(F)cc2F)nc2ccccc12)C1CC1 [Example 19, (R)—N^4-(1-cyclopropylethyl)-N^2-(2,4-difluorobenzyl)quinazoline-2,4-diamine]
EC50 [1]: 5 to 30 µM
Ki (Son of Sevenless (SOS)): > 5 µM

Fc1ccc(Nc2nc(NC(C3CC3)C3CC3)c3ccccc3n2)cc1Cl [Example 21, N^2-(3-chloro-4-fluorophenyl)-N^4-(dicyclopropylmethyl)quinazoline-2,4-diamine]
EC50 [1]: 1 to 5 µM
Ki (Son of Sevenless (SOS)): > 5 µM

C[C@@H](Nc1nc(Nc2cc(F)cc(C#N)c2)nc2ccccc12)C1CC1 [Example 23, (R)-3-((4-((1-cyclopropylethyl)amino)quinazolin-2-yl)amino)-5-fluorobenzonitrile]
EC50 [1]: 1 to 5 µM
Ki (Son of Sevenless (SOS)): > 5 µM

Cc1cc(CNc2nc(N[C@H](C)C3CC3)c3ccccc3n2)ccc1F [Example 24, (R)—N^4-(1-cyclopropylethyl)-N^2-(4-fluoro-3-methylbenzyl)quinazoline-2,4-diamine]
EC50 [1]: 1 to 5 µM
Ki (Son of Sevenless (SOS)): > 5 µM

COc1cccc(CNc2nc(N[C@H](C)C3CC3)c3ccccc3n2)c1 [Example 27, (R)—N^4-(1-cyclopropylethyl)-N^2-(3-methoxybenzyl)quinazoline-2,4-diamine]
EC50 [1]: 5 to 30 µM
Ki (Son of Sevenless (SOS)): > 5 µM

Clc1ccc(Nc2nc(NCc3ccco3)c3ccccc3n2)cc1Cl [Example 32, N^2-(3,4-dichlorophenyl)-N^4-(furan-2-ylmethyl)quinazoline-2,4-diamine]
EC50 [1]: 1 to 5 µM
Ki (Son of Sevenless (SOS)): > 5 µM

CC[C@@H](Nc1nc(Nc2ccc(F)c(Cl)c2)nc2ccccc12)C1CC1 [Example 34, (R)—N^2-(3-chloro-4-fluorophenyl)-N^4-(1-cyclopropylpropyl)quinazoline-2,4-diamine]
EC50 [1]: 5 to 30 µM
Ki (Son of Sevenless (SOS)): > 5 µM

CC[C@@H](Nc1nc(Nc2cc(F)cc(F)c2)nc2ccccc12)C1CC1 [Example 35, (R)—N^4-(1-cyclopropylpropyl)-N^2-(3,5-difluorophenyl)quinazoline-2,4-diamine]
EC50 [1]: 1 to 5 µM
Ki (Son of Sevenless (SOS)): > 5 µM

CCC[C@@H](Nc1nc(Nc2ccc(F)c(Cl)c2)nc2ccccc12)C1CC1 [Example 36, (R)—N^2-(3-chloro-4-fluorophenyl)-N^4-(1-cyclopropylbutyl)quinazoline-2,4-diamine]
EC50 [1]: 1 to 5 µM
Ki (Son of Sevenless (SOS)): > 5 µM

C[C@@H](Nc1nc(Nc2ccc(F)c(Cl)c2)nc2ccccc12)c1cccs1 [Example 37, (R)—N^2-(3-chloro-4-fluorophenyl)-N^4-(1-(thiophen-2-yl)ethyl)quinazoline-2,4-diamine]
EC50 [1]: 1 to 5 µM
Ki (Son of Sevenless (SOS)): > 5 µM

C[C@@H](Nc1nc(Nc2cc(F)cc(F)c2)nc2ccccc12)c1cccs1 [Example 38, (R)—N^2-(3,5-difluorophenyl)-N^4-(1-(thiophen-2-yl)ethyl)quinazoline-2,4-diamine]
EC50 [1]: 1 to 5 µM
Ki (Son of Sevenless (SOS)): > 5 µM

C[C@@H](Nc1nc(Nc2ccc(F)c(Cl)c2)nc2ccccc12)C(C)(C)C [Example 40, (R)—N^2-(3-chloro-4-fluorophenyl)-N^4-(3,3-dimethylbutan-2-yl)quinazoline-2,4-diamine]
EC50 [1]: 1 to 5 µM
Ki (Son of Sevenless (SOS)): > 5 µM

CC[C@@H](Nc1nc(Nc2ccc(F)c(Cl)c2)nc2ccccc12)C1CCC1 [Example 42, (R)—N^2-(3-chloro-4-fluorophenyl)-N^4-(1-cyclobutylpropyl)quinazoline-2,4-diamine]
EC50 [1]: 1 to 5 µM
Ki (Son of Sevenless (SOS)): > 5 µM

C[C@@H](Nc1nc(Nc2ccc(F)c(Cl)c2)nc2c(N3CCNCC3)cccc12)C1CC1 [Example 52, (R)—N^2-(3-chloro-4-fluorophenyl)-N^4-(1-cyclopropylethyl)-8-(piperazin-1-yl)quinazoline-2,4-diamine]
EC50 [1]: 1 to 5 µM
Ki (Son of Sevenless (SOS)): 1 to 5 µM

C[C@@H](Nc1nc(Nc2ccc(F)c(Cl)c2)nc2c(NCCCN(C)C)cccc12)C1CC1 [Example 53, (R)—N^2-(3-chloro-4-fluorophenyl)-N^4-(1-cyclopropylethyl)-N^8-(3-(dimethylamino)propyl)quinazoline-2,4,8-triamine]
EC50 [1]: 5 to 30 µM
Ki (Son of Sevenless (SOS)): > 5 µM

C[C@@H](Nc1nc(NCc2cccc(Cl)c2F)nc2c(C3=CCNCC3)cccc12)C(C)(C)C [Example 129, (R)—N^2-(3-chloro-2-fluorobenzyl)-N^4-(3,3-dimethylbutan-2-yl)-8-(1,2,3,6-tetrahydropyridin-4-yl)quinazoline-2,4-diamine]
EC50 [1]: 5 to 30 µM

Source: patent publication US11318137B2, “Quinazoline compounds as modulators of Ras signaling” (VANDERBILT UNIVERSITY, priority 2017, dated 2022)
